From patent publication US12275731B2, “Azaindole inhibitors of wild-type and mutant forms of LRRK2” (DANA-FARBER CANCER INSTITUTE, INC., priority 2018, dated 2025)

How the values were obtained:
Experiment in all cases: KinomeScan profiling
Format in all cases: binding
CTK = biological target: T1, CTK (Homo sapiens, UniProt P42679); details: read-out: % control
T1 sequence (P42679 1-507): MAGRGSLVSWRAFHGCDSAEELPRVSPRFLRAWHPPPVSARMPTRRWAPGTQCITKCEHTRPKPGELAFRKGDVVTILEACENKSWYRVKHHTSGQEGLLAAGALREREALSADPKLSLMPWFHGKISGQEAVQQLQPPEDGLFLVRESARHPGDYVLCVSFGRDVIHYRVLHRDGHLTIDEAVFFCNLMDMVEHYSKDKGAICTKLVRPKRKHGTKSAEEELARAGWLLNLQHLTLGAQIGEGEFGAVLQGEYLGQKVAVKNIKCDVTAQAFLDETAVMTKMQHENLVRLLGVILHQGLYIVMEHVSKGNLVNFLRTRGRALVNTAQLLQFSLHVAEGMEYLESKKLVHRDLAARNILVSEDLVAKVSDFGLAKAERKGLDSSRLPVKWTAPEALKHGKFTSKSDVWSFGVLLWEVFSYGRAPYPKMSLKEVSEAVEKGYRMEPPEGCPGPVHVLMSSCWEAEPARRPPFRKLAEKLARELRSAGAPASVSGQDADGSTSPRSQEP
In short: (§1)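 1 μM cpd in DMSO; 468-kinase panel; readout RLU. % ctrl = (cpd − pos ctrl)/(neg ctrl − pos ctrl) ×100. Pos ctrl = 0%, DMSO = 100%. Hit cut-off <35%.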

ERK5 = ERK5 (Homo sapiens, UniProt Q13164); details: ERK5, 1 μM; read-out: % control
Sequence of ERK5 (Q13164 whole entry): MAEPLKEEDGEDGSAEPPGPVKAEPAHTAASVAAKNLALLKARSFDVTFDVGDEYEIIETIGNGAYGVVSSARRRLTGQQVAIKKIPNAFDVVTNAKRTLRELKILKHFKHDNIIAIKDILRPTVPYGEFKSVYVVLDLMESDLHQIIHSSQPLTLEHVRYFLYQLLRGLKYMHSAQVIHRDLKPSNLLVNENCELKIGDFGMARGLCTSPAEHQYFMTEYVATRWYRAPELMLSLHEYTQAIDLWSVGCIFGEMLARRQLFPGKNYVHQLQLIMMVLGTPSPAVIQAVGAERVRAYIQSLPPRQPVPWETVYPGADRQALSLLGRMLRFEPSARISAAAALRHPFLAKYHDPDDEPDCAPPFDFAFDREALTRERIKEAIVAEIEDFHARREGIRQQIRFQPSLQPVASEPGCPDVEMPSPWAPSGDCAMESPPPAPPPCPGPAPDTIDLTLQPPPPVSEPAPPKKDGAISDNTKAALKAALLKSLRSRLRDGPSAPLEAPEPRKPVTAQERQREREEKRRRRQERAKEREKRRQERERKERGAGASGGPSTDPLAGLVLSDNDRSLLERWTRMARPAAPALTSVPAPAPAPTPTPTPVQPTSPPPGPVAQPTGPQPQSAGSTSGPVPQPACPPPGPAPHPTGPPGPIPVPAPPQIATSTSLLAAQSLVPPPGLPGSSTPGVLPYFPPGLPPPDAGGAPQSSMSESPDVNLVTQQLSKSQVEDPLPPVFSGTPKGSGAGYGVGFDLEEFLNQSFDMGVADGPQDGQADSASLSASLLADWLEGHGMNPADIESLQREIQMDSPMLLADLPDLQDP
In short: as §1

JNK3 = biological target: T2, JNK3 (Homo sapiens, UniProt P53779); details: JNK3, 1 μM; read-out: % control
T2 construct: purchased KinomeScan®
T2 sequence (P53779 whole entry): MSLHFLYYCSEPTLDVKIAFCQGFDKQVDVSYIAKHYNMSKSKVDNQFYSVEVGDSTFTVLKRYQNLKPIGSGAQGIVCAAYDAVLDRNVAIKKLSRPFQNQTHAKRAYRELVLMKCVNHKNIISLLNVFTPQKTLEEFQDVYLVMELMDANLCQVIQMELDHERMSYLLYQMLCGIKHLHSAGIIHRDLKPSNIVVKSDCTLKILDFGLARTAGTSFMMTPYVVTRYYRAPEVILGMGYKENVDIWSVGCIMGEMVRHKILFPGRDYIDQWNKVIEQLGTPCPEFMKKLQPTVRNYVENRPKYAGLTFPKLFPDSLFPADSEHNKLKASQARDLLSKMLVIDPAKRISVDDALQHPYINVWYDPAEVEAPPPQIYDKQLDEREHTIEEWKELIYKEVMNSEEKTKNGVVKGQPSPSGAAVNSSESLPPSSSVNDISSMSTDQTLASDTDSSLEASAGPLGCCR
In short: as §1

MEK6 = biological target: T3, MEK6 (Homo sapiens, UniProt P52564); details: MEK6, 1 μM; read-out: % control
T3 sequence (P52564 1-334): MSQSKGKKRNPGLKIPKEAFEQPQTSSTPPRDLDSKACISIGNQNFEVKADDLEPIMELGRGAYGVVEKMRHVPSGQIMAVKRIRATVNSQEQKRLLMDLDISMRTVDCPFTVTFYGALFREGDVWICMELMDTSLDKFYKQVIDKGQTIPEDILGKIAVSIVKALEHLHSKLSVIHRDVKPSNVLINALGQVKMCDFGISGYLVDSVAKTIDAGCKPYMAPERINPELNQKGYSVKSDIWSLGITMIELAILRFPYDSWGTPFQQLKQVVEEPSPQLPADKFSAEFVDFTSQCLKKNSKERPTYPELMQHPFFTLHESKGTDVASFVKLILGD
In short: as §1

QSK = QSK (Homo sapiens, UniProt Q9Y2K2); details: read-out: % control
Sequence of QSK (Q9Y2K2 whole entry): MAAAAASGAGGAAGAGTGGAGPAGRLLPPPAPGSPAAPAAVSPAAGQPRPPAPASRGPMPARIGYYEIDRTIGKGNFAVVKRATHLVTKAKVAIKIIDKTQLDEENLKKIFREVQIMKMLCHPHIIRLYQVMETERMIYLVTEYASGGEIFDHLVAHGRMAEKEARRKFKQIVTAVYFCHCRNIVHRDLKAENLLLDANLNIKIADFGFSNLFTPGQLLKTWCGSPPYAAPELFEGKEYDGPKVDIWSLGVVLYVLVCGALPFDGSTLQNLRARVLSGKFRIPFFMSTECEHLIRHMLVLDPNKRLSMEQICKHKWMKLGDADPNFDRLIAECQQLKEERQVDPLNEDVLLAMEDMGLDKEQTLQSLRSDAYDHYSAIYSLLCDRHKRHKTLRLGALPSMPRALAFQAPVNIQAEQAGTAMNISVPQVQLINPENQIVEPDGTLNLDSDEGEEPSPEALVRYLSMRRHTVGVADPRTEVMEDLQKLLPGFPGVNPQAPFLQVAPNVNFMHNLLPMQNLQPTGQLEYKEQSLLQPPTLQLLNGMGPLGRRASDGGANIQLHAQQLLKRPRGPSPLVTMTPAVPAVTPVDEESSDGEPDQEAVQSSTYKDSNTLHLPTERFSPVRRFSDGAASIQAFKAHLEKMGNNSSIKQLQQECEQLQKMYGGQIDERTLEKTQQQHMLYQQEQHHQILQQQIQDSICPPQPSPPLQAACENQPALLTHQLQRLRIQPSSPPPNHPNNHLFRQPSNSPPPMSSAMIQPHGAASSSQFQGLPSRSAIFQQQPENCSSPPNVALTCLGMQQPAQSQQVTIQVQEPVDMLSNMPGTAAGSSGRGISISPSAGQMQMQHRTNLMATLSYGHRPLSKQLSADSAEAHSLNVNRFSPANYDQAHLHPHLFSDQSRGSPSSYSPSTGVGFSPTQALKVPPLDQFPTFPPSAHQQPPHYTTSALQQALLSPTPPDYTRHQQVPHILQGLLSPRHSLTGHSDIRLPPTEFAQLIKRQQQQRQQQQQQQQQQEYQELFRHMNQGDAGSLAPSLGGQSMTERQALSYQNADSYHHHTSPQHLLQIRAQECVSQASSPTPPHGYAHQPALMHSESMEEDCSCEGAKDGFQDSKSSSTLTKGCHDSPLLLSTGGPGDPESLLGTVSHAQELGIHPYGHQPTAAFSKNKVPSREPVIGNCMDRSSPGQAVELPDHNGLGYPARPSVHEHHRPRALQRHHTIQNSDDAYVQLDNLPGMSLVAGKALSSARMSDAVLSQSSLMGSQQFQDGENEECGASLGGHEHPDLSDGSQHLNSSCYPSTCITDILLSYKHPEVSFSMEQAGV
In short: as §1

RET = RET (Homo sapiens, UniProt P07949); details: read-out: % control
Sequence of RET (P07949 29-1114): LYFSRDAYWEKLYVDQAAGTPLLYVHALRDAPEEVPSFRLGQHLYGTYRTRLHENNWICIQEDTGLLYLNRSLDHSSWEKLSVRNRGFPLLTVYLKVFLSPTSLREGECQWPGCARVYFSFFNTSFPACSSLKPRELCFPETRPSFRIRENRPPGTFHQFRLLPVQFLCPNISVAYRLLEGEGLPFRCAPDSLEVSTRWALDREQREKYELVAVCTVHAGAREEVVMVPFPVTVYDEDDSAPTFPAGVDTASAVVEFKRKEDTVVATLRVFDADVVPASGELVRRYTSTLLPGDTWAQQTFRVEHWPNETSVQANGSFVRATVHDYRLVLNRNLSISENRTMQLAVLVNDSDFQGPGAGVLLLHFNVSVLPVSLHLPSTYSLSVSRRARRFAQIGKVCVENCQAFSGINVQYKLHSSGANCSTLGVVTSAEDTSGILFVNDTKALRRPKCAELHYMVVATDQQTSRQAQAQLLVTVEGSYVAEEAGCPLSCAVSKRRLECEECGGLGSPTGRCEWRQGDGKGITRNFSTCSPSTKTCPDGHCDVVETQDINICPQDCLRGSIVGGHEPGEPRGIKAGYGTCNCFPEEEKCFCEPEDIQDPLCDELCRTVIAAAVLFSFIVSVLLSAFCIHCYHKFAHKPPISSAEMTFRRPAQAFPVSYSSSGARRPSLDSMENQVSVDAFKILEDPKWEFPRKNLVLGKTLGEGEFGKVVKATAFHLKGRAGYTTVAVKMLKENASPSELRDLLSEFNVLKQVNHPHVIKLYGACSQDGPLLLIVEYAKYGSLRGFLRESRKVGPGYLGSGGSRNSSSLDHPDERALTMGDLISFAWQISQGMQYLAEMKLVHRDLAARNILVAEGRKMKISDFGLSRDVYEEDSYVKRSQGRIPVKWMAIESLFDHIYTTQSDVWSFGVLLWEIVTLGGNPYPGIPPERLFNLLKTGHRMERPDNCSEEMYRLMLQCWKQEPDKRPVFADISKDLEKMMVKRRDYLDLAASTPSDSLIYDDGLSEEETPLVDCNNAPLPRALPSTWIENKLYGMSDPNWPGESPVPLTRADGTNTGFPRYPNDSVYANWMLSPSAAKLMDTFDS
In short: as §1

[1] = biological target: T4, RPS6KA4(Kin.Dom.2-C-terminal) (Homo sapiens, UniProt O75676); details: read-out: % control
T4 construct: RPS6KA4(Kin.Dom.2-C-terminal)
T4 sequence (O75676 411-674 limits assumed): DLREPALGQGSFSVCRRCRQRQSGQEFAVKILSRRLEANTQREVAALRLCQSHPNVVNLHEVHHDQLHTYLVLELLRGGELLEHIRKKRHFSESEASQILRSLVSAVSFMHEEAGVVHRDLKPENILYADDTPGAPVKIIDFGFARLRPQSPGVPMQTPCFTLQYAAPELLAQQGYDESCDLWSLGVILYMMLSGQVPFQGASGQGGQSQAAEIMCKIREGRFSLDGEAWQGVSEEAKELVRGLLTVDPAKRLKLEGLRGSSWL
In short: as §1

STK36 = biological target: T5, STK36 (Homo sapiens, UniProt Q9NRP7); details: STK36, 1 μM; read-out: % control
T5 construct: purchased KinomeScan® (panel service)
T5 sequence (Q9NRP7 1-1315): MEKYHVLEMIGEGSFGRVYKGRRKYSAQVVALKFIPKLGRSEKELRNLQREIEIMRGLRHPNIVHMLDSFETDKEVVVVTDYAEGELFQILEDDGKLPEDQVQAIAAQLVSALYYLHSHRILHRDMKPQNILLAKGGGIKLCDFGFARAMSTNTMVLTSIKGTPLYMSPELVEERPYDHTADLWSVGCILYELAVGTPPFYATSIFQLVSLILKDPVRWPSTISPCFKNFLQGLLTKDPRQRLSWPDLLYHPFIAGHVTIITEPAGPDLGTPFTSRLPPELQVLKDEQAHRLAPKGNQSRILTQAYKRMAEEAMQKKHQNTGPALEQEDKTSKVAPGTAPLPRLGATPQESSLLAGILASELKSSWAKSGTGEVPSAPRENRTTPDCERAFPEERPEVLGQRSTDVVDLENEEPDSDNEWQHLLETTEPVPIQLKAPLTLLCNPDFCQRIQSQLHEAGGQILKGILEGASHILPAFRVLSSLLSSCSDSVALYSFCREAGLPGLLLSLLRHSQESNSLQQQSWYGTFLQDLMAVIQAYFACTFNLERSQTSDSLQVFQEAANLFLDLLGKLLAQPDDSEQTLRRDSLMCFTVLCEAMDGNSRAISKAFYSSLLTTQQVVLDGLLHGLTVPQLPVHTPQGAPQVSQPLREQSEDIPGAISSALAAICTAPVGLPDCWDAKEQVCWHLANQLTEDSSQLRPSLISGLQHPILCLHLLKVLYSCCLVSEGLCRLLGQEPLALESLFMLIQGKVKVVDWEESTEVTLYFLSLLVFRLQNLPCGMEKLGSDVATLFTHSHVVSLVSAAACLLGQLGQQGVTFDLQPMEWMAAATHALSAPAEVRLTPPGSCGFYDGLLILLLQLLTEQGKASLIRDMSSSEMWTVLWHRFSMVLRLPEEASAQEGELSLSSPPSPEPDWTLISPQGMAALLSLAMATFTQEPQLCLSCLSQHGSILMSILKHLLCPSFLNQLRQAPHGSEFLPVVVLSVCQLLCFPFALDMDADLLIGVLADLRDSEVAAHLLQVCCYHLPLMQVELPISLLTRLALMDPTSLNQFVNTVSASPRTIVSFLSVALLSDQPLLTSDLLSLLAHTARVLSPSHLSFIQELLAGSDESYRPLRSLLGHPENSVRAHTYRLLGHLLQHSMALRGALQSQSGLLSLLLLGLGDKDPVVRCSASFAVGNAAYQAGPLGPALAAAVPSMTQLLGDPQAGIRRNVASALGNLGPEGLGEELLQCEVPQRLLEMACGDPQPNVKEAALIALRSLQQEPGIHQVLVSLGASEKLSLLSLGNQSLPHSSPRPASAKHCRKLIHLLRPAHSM
In short: as §1

Compound	remaining binding at 1 µM (CTK) [%]	remaining binding at 1 µM (ERK5) [%]	remaining binding at 1 µM (JNK3) [%]	remaining binding at 1 µM (MEK6) [%]	remaining binding at 1 µM (QSK) [%]	remaining binding at 1 µM (RET) [%]	remaining binding at 1 µM [1] [%]	remaining binding at 1 µM (STK36) [%]
CNc1c(-c2cnn([C@H]3CCN(C(C)=O)C[C@@H]3F)c2)cnc2[nH]cc(Cl)c12 [Compound 77, 1-((3S,4S)-4-(4-(3-chloro-4-(methylamino)-1H-pyrrolo[2,3-b]pyridin-5-yl)-1H-pyrazol-1-yl)-3-fluoropiperidin-1-yl)ethan-1-one]	97	100	1.9	60	76	27	90	100
O=C(c1ccc(-c2cnc3[nH]cc(Cl)c3c2NC2CCCC2)cc1)N1CCC(N2CCOCC2)CC1 [Compound 101, (4-(3-chloro-4-(cyclopentylamino)-1H-pyrrolo[2,3-b]pyridin-5-yl)phenyl)(4-morpholinopiperidin-1-yl)methanone]	95	100	7.6	95	97	85	99	96
CNc1c(-c2ccc(C(=O)N3CCC(N4CCOCC4)CC3)cc2)cnc2[nH]cc(Cl)c12 [Compound 96, (4-(3-chloro-4-(methylamino)-1H-pyrrolo[2,3-b]pyridin-5-yl)phenyl)(4-morpholinopiperidin-1-yl)methanone]	100	81	0.35	16	76	80	65	99
